From PMC9829398 (Plant Biotechnology Journal, 2022)

Experiments:
THE1‐CD = assay: THE1-CD kinase activity (autophosphorylation); assay type: biochemical, Arabidopsis thaliana; conditions: 5 μM
Aurora A = conditions: read-out: IC50 for Aurora A; ref D'Alise et al., [2008]; cited from earlier work
Ralstonia solanacearum = assay type: in vivo; conditions: Arabidopsis seedlings pretreated with 5 μM, 4 days after inoculation
PEPR1 = assay: PEPR1-CD kinase activity; assay type: biochemical, Arabidopsis
Source text: Fig. S10. […] (a) Effects of FER inhibitors on the kinase activity of the Arabidopsis receptor kinase PEPR1 and CERK1 cytoplasmic domains (CDs). […] AT1G73080. […] AT3G21630. DMSO (0.05%; v/v) was used as a negative control. The data are shown as the means ± SDs (n = 4). The assay was repeated three times with similar results. ***, […]) Protein purification of PEPR1-CD and CERK1-CD. […] In (c and d), the data are presented as the means ± SDs of three biological replicates.

Aurora C = conditions: read-out: IC50 for Aurora C; ref D'Alise et al., [2008]; cited from earlier work
[1] = test system: Arabidopsis Col‐0 and fer‐4 seedlings; assay: Growth of Arabidopsis seedlings (root length, shoot fresh weight); conditions: 5 μM for 3 days, vs ddH2O (mock) and lapatinib
PER5 = conditions: 5 μM for 24 h, confocal microscopy
Aurora B = conditions: read-out: IC50 for Aurora B; ref D'Alise et al., [2008]; cited from earlier work
[2] = molecular target: EGFR‐associated tyrosine kinase; parameters: method as in Hsu et al., [1991]; conditions: ref Hsu et al., [1991]; cited from earlier work

SMILES	Inhibition rate of THE1-CD kinase activity (THE1‐CD)	IC50 (Aurora A) [nM]	Cotyledon bleaching caused by R. solanacearum (Ralstonia solanacearum)	Effect on PEPR1 kinase activity (PEPR1)	IC50 (Aurora C) [nM]	Growth of roots and shoots of Arabidopsis Col-0 seedlings [1]	Expression of PER5 in roots (PER5)	IC50 (Aurora B) [nM]	IC50 for EGFR-associated tyrosine kinase [2]
c1nc2nc(Nc3ccc(N4CCOCC4)cc3)nc(NC3CCCCC3)c2[nH]1 [Reversine]	lower than 55%	[…]	effectively prevented the cotyledon bleaching	did not affect the kinase activity	[…]	did not affect the growth of roots and shoots	did not affect the expression levels	[…]	
O=C(O)c1cc(N(Cc2ccccc2O)Cc2cc(O)ccc2O)ccc1O [Lavendustin A]	lower than 55%		effectively prevented the cotyledon bleaching	did not affect the kinase activity		significantly promoted root and shoot growth	did not affect the expression levels		Lavendustin A (RG‐14355), isolated from Streptomyces Griseolavendus, is a potent, specific and ATP‐competitive inhibitor of tyrosine kinase, with an IC50 of 11 ng/mL for EGFR‐associated tyrosine kinase (Hsu et al., [1991])
